Source: patent US7521071B2, “Formulation of oral compositions comprising arsenic trioxide and methods of use thereof” (Versitech Limited, priority 2002, dated 2009)
Marks after values point to notes of the source that are not given here.

Tests used:
[1] = test system: PML/RARA; test: Molecular monitoring of PML/RARA (PCR) in Example 2; type: in vivo, human patients
Experimental: Twelve consecutive unselected patients with relapsed APL were treated with oral-As2O3 (see Table 4). The relapse was confirmed morphologically (>30% blasts+abnormal promyelocytes in the marrow) and cytogenetically (presence of t(15;17), with none of the cases showing additional karyotyic aberrations) or molecularly (presence of PML/RARA). The treatment was given with informed consent, and the protocol was approved by the University of Hong Kong Faculty of Medicine Ethics Committee.
However, PML/RARA became negative in 11 cases 3-6 months post-remission, and remained negative until the latest bone marrow examination. PCR in patient no. 1 became positive shortly before R2.

[2] = As2O3 powder; cited from earlier work
[3] = Safety monitoring in Example 1 (ECG, complications); type: in vivo, human patients
Experimental: Demographic features as well as details pertaining to each patient's disease state (including laboratory findings) were recorded throughout the period of study. Their subsequent clinical progress and pertinent laboratory results were also logged. The University of Hong Kong Faculty of Medicine Ethics Committee approved the entire protocol.
The demographic features, basal arsenic concentrations, disease status, and treatment outcomes of each patient are shown in Table 2.

[4] = Arsenic in plasma and cellular fraction of blood at 48 hours; type: in vivo, human patients
Experimental: (§1) Venous blood samples were drawn (11 ml) prior to As2O3 administration on day-1 and subsequently at the following times after the beginning of the IV infusion: 1, 2, 3, 4, 6, 8, 24, 25, 26, 27, 28, 30, 32 and 48 hours. Five ml from each sample were collected in a non-gel lithium-heparin tube (for determination of plasma arsenic level) and 3 ml×2 in EDTA tubes (for determination of whole blood level). The plasma from the lithium-heparin tube was freshly separated and both the plasma and whole blood samples were stored at 4° C. and subsequently analyzed in batches.
Plasma and whole blood arsenic concentration were assayed after the samples were deproteinized with 3% (w/v) trichloroacetic acid and then mixed with matrix modifiers. The matrix modifiers contained magnesium nitrate (10 g/L), palladium chloride (6 g/L), and ammonium sulphite (20 g/L) in 0.5% Triton X 100. All chemicals were of analytical grade and were obtained from Sigma (St Louis, Mo.). The treated samples were assayed for total arsenic concentration in whole blood and plasma (which includes As2O3 per se and its metabolites) by graphite furnace atomic absorption spectrophotometry (Simma 6000, Perkin-Elmer, Norwalk, Conn.). Concentrations are therefore expressed as nmol/L of arsenic above basal values. The between-day coefficient of variation of this method was 7.5-9.6% for arsenic concentrations varying from 559 to 2169 nmol/L. The accuracy of this method was assessed by spiking known amounts of arsenic into patient samples; recovery being 97.3-101.3% for concentrations varying from 301 to 678 nmol/L.
The concentration of arsenic in the cellular fraction of blood (Cc) at 48 hours after the initial intravenous dose was calculated from the corresponding plasma (Cp) and whole blood (Cb) concentrations and the prevailing hematocrit (Hct) value as follows:
Nano mols of arsenic in the plasma from 1 liter of blood=Cp(1-Hct).
Accordingly, the mass of arsenic in the remaining cellular fraction in 1 liter of blood amounts to Cb-[Cp(1-Hct)].
Thus, the concentration (weight/volume) of arsenic per liter of the cellular fraction of the blood Cc={Cb-[Cp(1-Hct)]}/Hct.

[5] = Oral arsenic bioavailability: plasma and whole blood arsenic AUC after IV (day 1) and oral (day 2) As2O3; type: in vivo, human patients
Experimental: As diets containing seafood contain arsenic, each patient was instructed to refrain from seafood, preferably for at least one week before arsenic administration. On day-1 at 10 A.M., 10 mg of a standard, commercially available IV As2O3 formulation (from Ophthalmic Laboratories, Sydney, Australia) diluted in 100 ml of Sodium Chloride 0.9% solution was infused IV over 60 minutes. At 10 A.M. on day-2 (i.e., 24 hours after the start of the IV infusion), each patient swallowed a 10 mg dose (10 ml) of our oral AS2O3 solution and none were instructed to fast before or during their treatment.
as §1, with “Five ml from each sample were collected in a non-gel lithium-heparin tube (for determination of plasma arsenic level) and 3 ml×2 in EDTA tubes (for determination of whole blood level).” left out
Plasma and whole blood arsenic concentration were assayed after the samples were deproteinized with 3% (w/v) trichloroacetic acid and then mixed with matrix modifiers. […] Concentrations are therefore expressed as nmol/L of arsenic above basal values. […]

[6] = test system: acute promyelocytic leukemia (APL); details: cited from earlier work

Compound: arsenic trioxide [As2O3]
- cases in which PML/RARA became negative ([1]; 3-6 months post-remission, of 12 patients): 11 cases
- PML/RARA after As2O3-induced CR ([1]; all patients): remained positive in all patients
- solubility in cold water [2]: sparingly and extremely slowly soluble
- abnormal QTc prolongation on regularly performed ECGs ([3]; all nine patients receiving As2O3): no instance of abnormal QTc prolongation
- unexpected complications ([3]; nine patients): No patient suffered unexpected complications
- Cellular Conc (Cc), Mean ([4]; 48 hours, mean of 9 patients): 286 nM/L
- Plasma Conc (Cp), Mean ([4]; 48 hours, mean of 9 patients): 85 nM/L
- Difference, Mean ([4]; 48 hours, mean of 9 patients, p = 0.013 two tailed paired t-test): 201* nM/L
- 48-hour concentrations in the cellular fraction of blood higher than corresponding plasma concentrations ([4]; except in patient no 1): 2 to 3 fold
- 48-hour blood cell arsenic levels greater than in plasma ([4]; on average, p=0.013): 270%
- inter-individual variation in plasma AUCs among the nine patients ([5]; plasma): ≤ 5 fold
- inter-individual variation in whole blood AUCs among the nine patients ([5]; whole blood): ≤ 10 fold
- remissions induced in APL patients ([6]; literature (Shen 1997, Soignet 1998, Niu 1999)): over 90%

Compound: S1[As]2S[As]3S[As]2S[As]13 [tetra-arsenic tetra-sulphide]
- efficacy in APL ([6]; oral, Lu et al. Blood 2002): highly efficacious in APL
